Test results taken from patent US20100249071A1, “Modulators of S1P and Methods of Making And Using” (Exelixis, Inc., priority 2009, published 2010).
Like-named read-outs stand apart in the source and are kept apart here.

Experiments:
[1] = target: T1, hS1PR5 (hEdg8) membrane protein (Homo sapiens, UniProt Q9H228); test: hS1P5R GTPγS binding assay (Assay 4); assay type: biochemical
T1 construct: expressed in transfected cells; host or cells: CHO
Experimental: The hS1PR5 GTPγS binding assay was carried out at room temperature in 96-well non-binding surface assay plates. The reaction in each well contained 5 μg hS1PR5 (hEdg8) membrane protein from CHO cells expressing hS1PR5, 30 μM GDP, 0.1 nM [^35S]GTPγS, 0.25% fatty acid free BSA, and serially-diluted Compound of the Invention in 200 μL assay buffer (25 mM Tris-HCl PH 7.9, 100 mM NaCl, 3 mM MgCl2, and 0.2 mM EGTA). After one hour of incubation, 0.9 mg of WGA (Wheat Germ Agglutinin) SPA beads in 50 μL of assay buffer was added to each well. The SPA beads were spun down after an additional one hour incubation. The radioactivity of the bound GTPγS was counted by reading the assay plate using a MicroBeta.

S1P3 = target: T2, S1P3 (Homo sapiens, UniProt Q99500); test: S1P3 Tango β-arrestin recruitment assay in HEK293 cells (Assay 5); assay type: cell-based
T2 construct: host or cells: HEK293 (transient transfection)
T2 sequence (P32121 whole entry): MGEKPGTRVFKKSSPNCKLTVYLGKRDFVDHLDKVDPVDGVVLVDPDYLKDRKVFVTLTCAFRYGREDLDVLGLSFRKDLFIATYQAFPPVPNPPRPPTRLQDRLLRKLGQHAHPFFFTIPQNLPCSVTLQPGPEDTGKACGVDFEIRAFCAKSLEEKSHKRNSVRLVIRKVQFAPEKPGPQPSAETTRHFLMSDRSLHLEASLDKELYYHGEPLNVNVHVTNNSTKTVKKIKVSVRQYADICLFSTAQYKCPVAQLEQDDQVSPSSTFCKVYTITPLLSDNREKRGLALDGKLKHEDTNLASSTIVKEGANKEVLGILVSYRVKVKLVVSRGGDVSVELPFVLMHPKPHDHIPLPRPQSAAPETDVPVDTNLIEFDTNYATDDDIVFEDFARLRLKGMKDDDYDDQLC
T2 sequence (Q99500 whole entry): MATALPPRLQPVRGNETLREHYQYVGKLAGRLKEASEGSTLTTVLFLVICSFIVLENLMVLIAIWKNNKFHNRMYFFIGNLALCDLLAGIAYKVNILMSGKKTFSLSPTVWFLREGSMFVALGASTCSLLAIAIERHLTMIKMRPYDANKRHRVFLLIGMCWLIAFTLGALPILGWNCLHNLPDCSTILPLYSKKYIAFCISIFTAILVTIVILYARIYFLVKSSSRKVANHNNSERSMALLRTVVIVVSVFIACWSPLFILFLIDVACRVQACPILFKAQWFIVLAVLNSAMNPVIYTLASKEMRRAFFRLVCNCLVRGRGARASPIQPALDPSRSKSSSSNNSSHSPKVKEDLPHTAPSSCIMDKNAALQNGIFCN
Source text: (§1) For the Tango™ β-arrestin recruitment assay, the cytoplasmic C-terminus of S1P1 was tethered to the tTA transcriptional activator with a linker that contains a cleavage site for the N1a protease from tobacco etch virus (TEV protease). The C-terminus of the human β-arrestin2 protein was fused to TEV protease. Binding of an agonist recruits the βl -arrestin-TEV fusion protein to the receptor resulting in cleavage of the linker and released of tTA to enter the nucleus and subsequently activated a tTA-dependent luciferase reporter gene.
Assay 2a: Frozen HEK293 cells transiently transfected with receptor cDNAs for S1P1 (Invitrogen) are thawed and suspended in 10 mL of Pro293a-CDM culture medium (Invitrogen) supplemented with 4 mM L-Glutamine (Invitrogen), 1× Pen/Strep (100 units/mL penicillin and 100 μg/mL streptomycin, Invitrogen) and 0.1% fatty acid free BSA (Sigma-Aldrich). Cells are added to the wells of a 384-well white opaque bottom assay plate (PerkinElmer) at 3,000-6,000 cells per well and the plate is incubated for approximately 4 h in a 37° C. incubator. Test compounds are tested at maximum concentrations of 10 μM for the agonist assays. Compounds are diluted in DMSO (10 concentration points, 3-fold each) and added to the assay plate at a 1% final DMSO concentration. For each compound, there are duplicate assay plates and each assay plate has duplicate wells per concentration point. The plate is incubated at 37° C. for 30 min. The efficacy control is 5 μM S1P (Avanti). Following agonist addition, the assay plates are incubated in a 37° C. incubator for 16-18 h. Luciferase assay reagent is added and luminescence measured in an EnVision plate reader (PerkinElmer). To determine agonist activity, percent activity is calculated as [(test compound−background)/(positive control−background)*100], where background is the luminescence of the DMSO alone control and the positive control is the luminescence from cells incubated with the efficacy control 5 μM S1P. The percent activities are plotted against compound concentration to determine EC50 using XLFit (IDBS).
This assay was conducted using the procedures described in Assay 2a, replacing S1P1 with S1P3.

[2] = target: T3, hS1P1R (hEdg1) membrane protein (Homo sapiens, UniProt P21453); test: hS1P1R GTPγS binding assay (Assay 3a); assay type: biochemical
T3 construct: purchased Lonza
T3 sequence (P21453 whole entry): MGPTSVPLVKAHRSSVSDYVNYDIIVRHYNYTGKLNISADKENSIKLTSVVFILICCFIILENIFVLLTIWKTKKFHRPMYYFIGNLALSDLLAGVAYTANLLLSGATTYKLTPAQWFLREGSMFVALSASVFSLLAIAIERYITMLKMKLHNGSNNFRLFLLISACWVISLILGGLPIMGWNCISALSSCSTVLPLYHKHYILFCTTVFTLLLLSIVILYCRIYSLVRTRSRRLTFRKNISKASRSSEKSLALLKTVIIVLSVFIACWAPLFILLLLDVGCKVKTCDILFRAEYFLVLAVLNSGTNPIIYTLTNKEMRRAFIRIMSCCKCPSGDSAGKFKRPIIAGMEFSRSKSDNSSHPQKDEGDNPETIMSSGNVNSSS
Experimental: Assay 3a: The hS1P1R GTPγS binding assay was carried out at room temperature in 96 well non-binding surface assay plates. The reaction in each well contained 4 μg hS1P1R (hEdg1) membrane protein (Lonza), 30 μM GDP, 0.1 nM [^35S]GTPγS, 0.25% fatty acid free BSA, and serially diluted hS1P1R agonist compound in 200 μL assay buffer (25 mM Tris-HCl PH 7.9, 100 mM NaCl, 3 mM MgCl2, and 0.2 mM EGTA). After one hour of incubation, 0.9 mg of WGA (Wheat Germ Agglutinin) SPA beads in 50 μL of assay buffer was added to each well. The SPA beads were spun down after an additional one hour incubation. The radioactivity of the bound GTPγS was counted by reading the assay plate using a MicroBeta.

S1P1 = target: T4, S1P1 (Homo sapiens, UniProt P21453); test: Tango β-arrestin recruitment assay in U2OS cells (Assay 2b); assay type: cell-based; conditions: read-out: Assay 2b EC50
T4 construct: host or cells: U2OS
T4 sequence (P32121 whole entry): as the sequence (P32121 whole entry) above
T4 sequence (P21453 whole entry): as the sequence (P21453 whole entry) above
Source text: as §1
Assay 2b: Alternatively, U2OS cells expressing the reporter gene and S1P1 (Invitrogen) were added to the wells of a 384-well white opaque bottom assay plate (PerkinElmer) at […]. The cells were serum starved for 48 h in Freestyle medium (Invitrogen). Test compounds were tested at maximum concentrations of 1 μM for the agonist assay. Compounds were diluted in DMSO (10 concentration points, 3-fold each) and added to the assay plate at a 1% final DMSO concentration. The efficacy control was 1 μM S1P (Avanti). For each compound, there were duplicate assay plates and each assay plate had duplicate wells per concentration point. The plate was incubated overnight at 37° C. The GeneBLAzer β-lactamase assay reagent (Invitrogen) was added and the plates were incubated for an additional 2 h at room temperature. Fluorescence was measured using an EnVision plate reader (PerkinElmer, Waltham, Mass.) at an excitation wavelength of 409 nm and emission wavelengths of 460 nm and 530 nm. The emission intensity at each wavelength was background subtracted against wells containing medium only and the F460 nm/F530 nm ratio determined for each concentration of the test compounds. Percent activity was calculated as [(test compound ratio−DMSO ratio)/(positive control ratio−DMSO ratio)*100], where the positive control and DMSO ratios are from cells incubated with the efficacy control 1 μM S1P and 1% DMSO, respectively. The percent activities were plotted against compound concentration to determine EC50 using XLFit (IDBS).

T1 sequence (Q9H228 whole entry): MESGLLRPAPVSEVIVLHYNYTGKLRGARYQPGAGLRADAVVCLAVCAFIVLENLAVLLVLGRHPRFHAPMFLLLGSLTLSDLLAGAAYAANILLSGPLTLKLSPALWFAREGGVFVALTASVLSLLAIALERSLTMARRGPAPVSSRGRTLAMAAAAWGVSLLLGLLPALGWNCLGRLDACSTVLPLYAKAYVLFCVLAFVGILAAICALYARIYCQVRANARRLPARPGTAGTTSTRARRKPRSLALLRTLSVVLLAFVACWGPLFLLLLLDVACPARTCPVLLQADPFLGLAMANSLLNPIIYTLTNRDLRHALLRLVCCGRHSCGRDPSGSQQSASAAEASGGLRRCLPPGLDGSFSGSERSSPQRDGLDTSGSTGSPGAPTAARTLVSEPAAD

SMILES | EC50 [1] [nM] | EC50 (S1P3; read-out: Assay 5 EC50) [nM] | EC50 [2] [nM] | EC50 (S1P1) [nM] | EC50 (S1P3; * = rEC50 measured rather than EC50, read-out: Assay 5 rEC50 (relative EC50, cells marked *)) [nM]
CC(C)Oc1ccc(-c2nnc(-c3cc(F)c(OCC(N)CO)cc3Cl)s2)cn1 (stereo not shown) [Entry 19, 2-amino-3-{[5-chloro-2-fluoro-4-(5-{6-[(1-methylethyl)oxy]pyridin-3-yl}-1,3,4-thiadiazol-2-yl)phenyl]oxy}propan-1-ol] | 250 to 2800 | > 250 | 50 to 250 | ≤ 10 | –
CC(C)Oc1ncc(-c2nnc(-c3cc(F)c(OC[C@H](N)CO)cc3Cl)s2)cc1Cl [Entry 20, (2R)-2-amino-3-{[5-chloro-4-(5-{5-chloro-6-[(1-methylethyl)oxy]pyridin-3-yl}-1,3,4-thiadiazol-2-yl)-2-fluorophenyl]oxy}propan-1-ol] | 250 to 2800 | > 10000 | 50 to 250 | 250 to 2800 | –
CC(C)N(C)c1cc(-c2nnc(-c3cc(F)c(OC[C@H](N)CO)cc3Cl)s2)cc(Cl)n1 [Entry 21, (2R)-2-amino-3-{[5-chloro-4-(5-{2-chloro-6-[methyl(1-methylethyl)amino]pyridin-4-yl}-1,3,4-thiadiazol-2-yl)-2-fluorophenyl)oxy}propan-1-ol] | 50 to 250 | > 10000 | 50 to 250 | 10 to 50 | –
CC(C)Oc1ccc(-c2nnc(-c3cc(F)c(OC[C@H](N)CO)cc3Cl)s2)nc1Cl [Entry 22, (2R)-2-amino-3-{[5-chloro-4-(5-{6-chloro-5-[(1-methylethyl)oxy]pyridin-2-yl}-1,3,4-thiadiazol-2-yl)-2-fluorophenyl]oxy}propan-1-ol] | 50 to 250 | > 10000 | 10 to 50 | 10 to 50 | –
N[C@H](CO)COc1cc(Cl)c(-c2nnc(-c3cc(F)cc(Br)c3)s2)cc1F [Entry 24, (2R)-2-amino-3-({4-[5-(3-bromo-5-fluorophenyl)-1,3,4-thiadiazol-2-yl]-5-chloro-2-fluorophenyl}oxy)propan-1-ol] | 250 to 2800 | > 10000 | 250 to 2800 | 50 to 250 | –
CCOc1ccc(-c2nnc(-c3cc(F)c(OC[C@H](N)CO)cc3Cl)s2)cc1Cl [Entry 25, (2R)-2-amino-3-[(5-chloro-4-{5-[3-chloro-4-(ethyloxy)phenyl]-1,3,4-thiadiazol-2-yl}-2-fluorophenyl)oxy]propan-1-ol] | 50 to 250 | > 10000 | 10 to 50 | 10 to 50 | –
CC(C)Oc1ccc(-c2nnc(-c3cc(F)c(OC[C@H](N)COP(=O)(O)O)cc3Cl)s2)cc1Br [Entry 29, (2S)-2-amino-3-{[4-(5-{3-bromo-4-[(1-methylethyl)oxy]phenyl}-1,3,4-thiadiazol-2-yl)-5-chloro-2-fluorophenyl]oxy}propyl dihydrogen phosphate] | ≤ 10 | ≤ 250 | ≤ 10 | ≤ 10 | –
CC(C)Oc1ncc(-c2nnc(-c3cc(F)c(OC[C@@H](N)CO)cc3Cl)s2)cc1Cl [Entry 32, (2S)-2-amino-3-{[5-chloro-4-(5-{5-chloro-6-[(1-methylethyl)oxy]pyridin-3-yl}-1,3,4-thiadiazol-2-yl)-2-fluorophenyl]oxy}propan-1-ol] | 250 to 2800 | ≤ 250 | 10 to 50 | ≤ 10 | –
CC(C)Oc1ccc(-c2nnc(-c3cc(F)c(OC[C@H](N)CO)cc3Cl)s2)cn1 [Entry 35, (2R)-2-amino-3-{[5-chloro-2-fluoro-4-(5-{6-[(1-methylethyl)oxy]pyridin-3-yl}-1,3,4-thiadiazol-2-yl)phenyl]oxy}propan-1-ol] | 250 to 2800 | > 10000 | 250 to 2800 | 50 to 250 | –
CC(C)Oc1ccc(-c2nnc(-c3cc(F)c(OC[C@@H](N)CO)cc3Cl)s2)cn1 [Entry 38, (2S)-2-amino-3-{[5-chloro-2-fluoro-4-(5-{6-[(1-methylethyl)oxy]pyridin-3-yl}-1,3,4-thiadiazol-2-yl)phenyl]oxy}propan-1-ol] | 250 to 2800 | ≤ 250 | 10 to 50 | ≤ 10 | –
CC(C)Oc1ccc(-c2nnc(-c3cc(Cl)c(OC[C@H](N)CO)c(Cl)c3)s2)cc1Cl [Entry 39, (2R)-2-amino-3-{[2,6-dichloro-4-(5-{3-chloro-4-[(1-methylethyl)oxy]phenyl}-1,3,4-thiadiazol-2-yl)phenyl]oxy}propan-1-ol] | 10 to 50 | > 10000 | ≤ 10 | 50 to 250 | –
CC(C)Oc1ccc(-c2nnc(-c3cc(F)c(OC[C@H](N)CO)c(Cl)c3)s2)cc1Cl [Entry 40, (2R)-2-amino-3-{[2-chloro-4-(5-{3-chloro-4-[(1-methylethyl)oxy]phenyl}-1,3,4-thiadiazol-2-yl)-6-fluorophenyl]oxy}propan-1-ol] | 10 to 50 | > 10000 | ≤ 10 | 10 to 50 | –
CC(C)N(C)c1cc(-c2nnc(-c3cc(F)c(OCC(N)CO)cc3Cl)s2)ccn1 (stereo not shown) [Entry 41, 2-amino-3-{[5-chloro-2-fluoro-4-(5-{2-[methyl(1-methylethyl)amino]pyridin-4-yl}-1,3,4-thiadiazol-2-yl)phenyl]oxy}propan-1-ol] | > 10000 | > 10000 | 250 to 2800 | ≤ 10 | –
CC(C)Nc1ccc(-c2nnc(-c3cc(F)c(OC[C@H](N)CO)cc3Cl)s2)cc1Cl [Entry 43, (2R)-2-amino-3-{[5-chloro-4-(5-{3-chloro-4-[(1-methylethyl)amino]phenyl}-1,3,4-thiadiazol-2-yl)-2-fluorophenyl]oxy}propan-1-ol] | 10 to 50 | > 10000 | ≤ 10 | 50 to 250 | –
CC(C)Nc1ccc(-c2nnc(-c3cc(F)c(OC[C@@H](N)CO)cc3Cl)s2)cc1Cl [Entry 45, (2S)-2-amino-3-{[5-chloro-4-(5-{3-chloro-4-[(1-methylethyl)amino]phenyl}-1,3,4-thiadiazol-2-yl)-2-fluorophenyl]oxy}propan-1-ol] | 10 to 50 | – | ≤ 10 | ≤ 10 | > 250
CC(C)Nc1ccc(-c2nnc(-c3cc(F)c(OC[C@H](N)[C@@H](C)O)cc3Cl)s2)cn1 [Entry 46, (2R,3S)-3-amino-4-{[5-chloro-2-fluoro-4-(5-{6-[(1-methylethyl)amino]pyridin-3-yl}-1,3,4-thiadiazol-2-yl)phenyl]oxy}butan-2-ol] | 250 to 2800 | > 10000 | 250 to 2800 | 10 to 50 | –
